What was measured:
Adenosylhomocysteinase = molecular target: T1, Adenosylhomocysteinase (Rattus norvegicus, UniProt P10760); assay: Inhibitory constant against rat liver S-adenosyl-L-homocysteine hydrolase
T1 sequence (P10760 whole entry): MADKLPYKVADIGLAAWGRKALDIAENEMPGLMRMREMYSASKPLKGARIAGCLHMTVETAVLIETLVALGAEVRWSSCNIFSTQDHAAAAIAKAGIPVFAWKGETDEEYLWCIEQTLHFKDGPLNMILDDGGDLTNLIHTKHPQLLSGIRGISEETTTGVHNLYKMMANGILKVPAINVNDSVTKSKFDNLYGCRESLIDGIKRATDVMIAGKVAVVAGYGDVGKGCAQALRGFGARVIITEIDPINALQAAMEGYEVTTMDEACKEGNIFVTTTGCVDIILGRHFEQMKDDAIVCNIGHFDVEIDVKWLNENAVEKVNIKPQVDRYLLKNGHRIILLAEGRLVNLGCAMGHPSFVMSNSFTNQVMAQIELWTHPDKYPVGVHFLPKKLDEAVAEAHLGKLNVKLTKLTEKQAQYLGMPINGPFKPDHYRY

[1] = molecular target: T2, Adenosylhomocysteinase (Rattus norvegicus) (UniProt P10760); assay: Inhibitory activity against rat liver S-adenosyl-L-homocysteine hydrolase
T2 sequence (whole entry): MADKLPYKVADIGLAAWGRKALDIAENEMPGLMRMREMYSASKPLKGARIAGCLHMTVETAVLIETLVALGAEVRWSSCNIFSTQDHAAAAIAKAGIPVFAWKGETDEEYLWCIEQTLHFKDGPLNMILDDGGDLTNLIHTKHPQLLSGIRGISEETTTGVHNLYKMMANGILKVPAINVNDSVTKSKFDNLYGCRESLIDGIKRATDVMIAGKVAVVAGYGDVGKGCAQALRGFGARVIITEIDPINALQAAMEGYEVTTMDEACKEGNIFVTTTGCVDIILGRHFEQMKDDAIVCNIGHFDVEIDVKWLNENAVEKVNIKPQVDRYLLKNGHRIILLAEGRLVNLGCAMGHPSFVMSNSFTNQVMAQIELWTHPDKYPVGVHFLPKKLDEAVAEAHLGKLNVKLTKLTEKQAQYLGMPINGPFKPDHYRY

[2] = substrate: Nc1ncnc2c1ncn2C1O[C@](F)(CO)[C@@H](O)[C@H]1O; assay: Michaelis constant towards rat liver S-adenosyl-L-homocysteine hydrolase was calculated

Nc1ncnc2c1ncn2C1O[C@](F)(CO)[C@@H](O)[C@H]1O (stereo partly drawn)
Ki (Adenosylhomocysteinase): 166 µM | kinact [1]: 0.24 min⁻¹

B1: Adenosylhomocysteinase (Rattus norvegicus), P10760 (protein)
chain: MADKLPYKVADIGLAAWGRKALDIAENEMPGLMRMREMYSASKPLKGARIAGCLHMTVETAVLIETLVALGAEVRWSSCNIFSTQDHAAAAIAKAGIPVFAWKGETDEEYLWCIEQTLHFKDGPLNMILDDGGDLTNLIHTKHPQLLSGIRGISEETTTGVHNLYKMMANGILKVPAINVNDSVTKSKFDNLYGCRESLIDGIKRATDVMIAGKVAVVAGYGDVGKGCAQALRGFGARVIITEIDPINALQAAMEGYEVTTMDEACKEGNIFVTTTGCVDIILGRHFEQMKDDAIVCNIGHFDVEIDVKWLNENAVEKVNIKPQVDRYLLKNGHRIILLAEGRLVNLGCAMGHPSFVMSNSFTNQVMAQIELWTHPDKYPVGVHFLPKKLDEAVAEAHLGKLNVKLTKLTEKQAQYLGMPINGPFKPDHYRY
Km [2]: 1 µM

Source: ChEMBL document CHEMBL1128653, “Synthesis of 4-fluoroadenosine as an inhibitor of S-adenosyl-L-homocysteine hydrolase” (Bioorg Med Chem Lett, 1995)
